What follows are molecules tested against T1, Human Factor XIIa (hFXIIa) (Homo sapiens, UniProt P00748) (assay: Determination of Human Factor XIIa (hFXIIa) inhibition, fluorogenic substrate IC50 assay). Details: fluorogenic substrate H-DPro-Phe-Arg-AFC at Km, 25° C., read-out: Human FXIIa IC50.
T1 construct: purchased Enzyme Research Laboratories
T1 sequence (P00748 373-615 limits assumed): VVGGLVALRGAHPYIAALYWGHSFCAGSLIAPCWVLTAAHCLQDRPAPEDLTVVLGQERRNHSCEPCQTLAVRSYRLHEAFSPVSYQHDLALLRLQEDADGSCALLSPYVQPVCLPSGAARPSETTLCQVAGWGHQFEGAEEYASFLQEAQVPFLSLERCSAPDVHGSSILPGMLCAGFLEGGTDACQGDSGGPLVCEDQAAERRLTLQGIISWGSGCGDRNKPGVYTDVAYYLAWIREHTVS
T1 sequence (P00748 20-372 partner limits assumed): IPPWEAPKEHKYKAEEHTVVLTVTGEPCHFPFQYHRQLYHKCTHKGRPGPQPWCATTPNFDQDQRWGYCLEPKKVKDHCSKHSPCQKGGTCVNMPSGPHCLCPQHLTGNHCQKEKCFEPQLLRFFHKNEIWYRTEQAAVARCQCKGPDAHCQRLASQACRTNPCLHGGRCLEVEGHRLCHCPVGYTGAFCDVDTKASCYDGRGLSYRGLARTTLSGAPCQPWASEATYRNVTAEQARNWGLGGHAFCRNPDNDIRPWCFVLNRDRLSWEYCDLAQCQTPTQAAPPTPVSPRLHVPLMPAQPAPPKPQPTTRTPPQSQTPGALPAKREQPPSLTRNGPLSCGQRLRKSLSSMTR
Assay type: biochemical
Protocol: Determination of Human Factor XIIa (hFXIIa) inhibition
The Km for the cleavage of the substrate by hFXIIa was determined by standard transformation of the Michaelis-Menten equation, with subsequent inhibition assays performed at substrate Km concentration.
Work on `CN1C(=O)C(C)(C)c2ccc(N3CCc4c(C(=O)NCC5CC5)nn(-c5cccc(Cl)c5)c4C3=O)cc21` [Example 1277, 1-(3-chlorophenyl)-N-(cyclopropylmethyl)-7-oxo-6-(1,3,3-trimethyl-2-oxoindolin-6-yl)-4,5,6,7-tetrahydro-1H-pyrazolo[3,4-c]pyridine-3-carboxamide] yielded an IC50 of 10 to 40 µM.
Molecule `CN(C)C(=O)c1cc(N2CCc3c(C(=O)NCC4CC4)nn(-c4cccc(Cl)c4)c3C2=O)ccn1` [Example 1278, 1-(3-chlorophenyl)-N-(cyclopropylmethyl)-6-(2-(dimethylcarbamoyl)pyridin-4-yl)-7-oxo-4,5,6,7-tetrahydro-1H-pyrazolo[3,4-c]pyridine-3-carboxamide] has an IC50 of 3 to 10 µM.
For `CN(C)C(=O)c1cncc(N2CCc3c(C(=O)NCC4CC4)nn(-c4cccc(Cl)c4)c3C2=O)c1` [Example 1279, 1-(3-chlorophenyl)-N-(cyclopropylmethyl)-6-(5-(dimethylcarbamoyl)pyridin-3-yl)-7-oxo-4,5,6,7-tetrahydro-1H-pyrazolo[3,4-c]pyridine-3-carboxamide], the IC50 was 10 to 40 µM.
In the case of `CN1CCc2ccc(N3CCc4c(C(=O)NCC56CCC(CO)(C5)O6)nn(-c5cccc(Cl)c5)c4C3=O)cc2C1=O` (stereo not shown) [Example 1280, 1-(3-chlorophenyl)-N-((4-(hydroxymethyl)-5-oxabicyclo[2.1.1]hexan-1-yl)methyl)-6-(2-methyl-1-oxo-1,2,3,4-tetrahydroisoquinolin-7-yl)-7-oxo-4,5,6,7-tetrahydro-1H-pyrazolo[3,4-c]pyridine-3-carboxamide], the IC50 is reported as 0.3 to 1 µM.
With `CN(C)C(=O)c1cc(N2CCc3c(C(=O)NCC4CC4)nn(-c4cccc(Cl)c4)c3C2=O)ccc1F` [Example 1281, 1-(3-chlorophenyl)-N-(cyclopropylmethyl)-6-(3-(dimethylcarbamoyl)-4-fluorophenyl)-7-oxo-4,5,6,7-tetrahydro-1H-pyrazolo[3,4-c]pyridine-3-carboxamide] the IC50 was 3 to 10 µM.
`CN1CCc2ccc(N3CCc4c(C(=O)NCC56CC(CO)(CCO5)C6)nn(-c5cccc(Cl)c5)c4C3=O)cc2C1=O` [Example 1283, 1-(3-chlorophenyl)-N-((5-(hydroxymethyl)-2-oxabicyclo[3.1.1]heptan-1-yl)methyl)-6-(2-methyl-1-oxo-1,2,3,4-tetrahydroisoquinolin-7-yl)-7-oxo-4,5,6,7-tetrahydro-1H-pyrazolo[3,4-c]pyridine-3-carboxamide] showed an IC50 of 0.3 to 1 µM.
In the case of `CCOC(=O)c1nn(-c2cccc(Cl)c2)c2c1CCN(c1ccc3c(c1)C(=O)N(C)CC3)C2=O` [Example 1284, ethyl 1-(3-chlorophenyl)-6-(2-methyl-1-oxo-1,2,3,4-tetrahydroisoquinolin-7-yl)-7-oxo-4,5,6,7-tetrahydro-1H-pyrazolo[3,4-c]pyridine-3-carboxylate], the IC50 is reported as 0.3 to 1 µM.
Molecule `CCN(CC)C(=O)c1cccc(N2CCc3c(C(=O)NCC4CC4)nn(-c4cccc(Cl)c4)c3C2=O)c1` [Example 1286, 1-(3-chlorophenyl)-N-(cyclopropylmethyl)-6-(3-(diethylcarbamoyl)phenyl)-7-oxo-4,5,6,7-tetrahydro-1H-pyrazolo[3,4-c]pyridine-3-carboxamide] has an IC50 of 10 to 40 µM.
In the case of `Cc1cc(CNC(=O)c2nn(-c3cccc(Cl)c3)c3c2CCN(c2ccc4c(c2)C(=O)N(CCO)CCO4)C3=O)nn1C` [Example 1288, 1-(3-Chlorophenyl)-N-[(1,5-dimethylpyrazol-3-yl)methyl]-6-[4-(2-hydroxyethyl)-5-oxo-2,3-dihydro-1,4-benzoxazepin-7-yl]-7-oxo-4,5-dihydropyrazolo[3,4-c]pyridine-3-carboxamide], the IC50 is reported as 0.01 to 0.1 µM.
`O=C(NCC1CC1)c1nn(-c2cccc(Cl)c2)c2c1CCN(c1ccc3c(c1)C(=O)N(CCO)CCO3)C2=O` [Example 1289, 1-(3-chlorophenyl)-N-(cyclopropylmethyl)-6-(4-(2-hydroxyethyl)-5-oxo-2,3,4,5-tetrahydrobenzo[f][1,4]oxazepin-7-yl)-7-oxo-4,5,6,7-tetrahydro-1H-pyrazolo[3,4-c]pyridine-3-carboxamide] was tested, and the IC50 was 0.1 to 0.3 µM.
With `Cc1cc(CNC(=O)c2nn(-c3cccc(Cl)c3)c3c2CCN(c2ccc4c(c2)C(=O)N(C2COC2)CC4)C3=O)nn1C` [Example 1290, 1-(3-chlorophenyl)-N-((1,5-dimethyl-1H-pyrazol-3-yl)methyl)-6-(2-(oxetan-3-yl)-1-oxo-1,2,3,4-tetrahydroisoquinolin-7-yl)-7-oxo-4,5,6,7-tetrahydro-1H-pyrazolo[3,4-c]pyridine-3-carboxamide] the IC50 was 0.1 to 0.3 µM.
Molecule `O=C(NCC1CC1)c1nn(-c2cccc(Cl)c2)c2c1CCN(c1ccc3c(c1)C(=O)N(CC1CCCO1)CC3)C2=O` (stereo not shown) [Example 1292, 1-(3-chlorophenyl)-N-(cyclopropylmethyl)-7-oxo-6-(1-oxo-2-((tetrahydrofuran-2-yl)methyl)-1,2,3,4-tetrahydroisoquinolin-7-yl)-4,5,6,7-tetrahydro-1H-pyrazolo[3,4-c]pyridine-3-carboxamide] has an IC50 of 0.3 to 1 µM.
`Cc1cc(CNC(=O)c2nn(-c3cccc(Cl)c3)c3c2CCN(c2ccc4c(c2)C(=O)N(CC2CCCO2)CC4)C3=O)nn1C` (stereo not shown) [Example 1293, 1-(3-chlorophenyl)-N-((1,5-dimethyl-1H-pyrazol-3-yl)methyl)-7-oxo-6-(1-oxo-2-((tetrahydrofuran-2-yl)methyl)-1,2,3,4-tetrahydroisoquinolin-7-yl)-4,5,6,7-tetrahydro-1H-pyrazolo[3,4-c]pyridine-3-carboxamide] was tested, and the IC50 was 0.1 to 0.3 µM.
For `O=C(NCC1CC1)c1nn(-c2cccc(Cl)c2)c2c1CCN(c1ccc3c(c1)C(=O)N(CCO)CCC3)C2=O` [Example 1294, 1-(3-chlorophenyl)-N-(cyclopropylmethyl)-6-(2-(2-hydroxyethyl)-1-oxo-2,3,4,5-tetrahydro-1H-benzo[c]azepin-8-yl)-7-oxo-4,5,6,7-tetrahydro-1H-pyrazolo[3,4-c]pyridine-3-carboxamide], the IC50 was 0.1 to 0.3 µM.
With `CN(C)C(=O)c1csc(N2CCc3c(C(=O)NCC4CC4)nn(-c4cccc(Cl)c4)c3C2=O)c1` [Example 1295, 1-(3-chlorophenyl)-N-(cyclopropylmethyl)-6-(4-(dimethylcarbamoyl)thiophen-2-yl)-7-oxo-4,5,6,7-tetrahydro-1H-pyrazolo[3,4-c]pyridine-3-carboxamide] the IC50 was 10 to 40 µM.
`CC(C)n1ccc(CNC(=O)c2nn(-c3cccc(Cl)c3)c3c2CCN(c2ccc4c(c2)C(=O)N(C)CC4)C3=O)n1` [Example 1296, 1-(3-chlorophenyl)-N-((1-isopropyl-1H-pyrazol-3-yl)methyl)-6-(2-methyl-1-oxo-1,2,3,4-tetrahydroisoquinolin-7-yl)-7-oxo-4,5,6,7-tetrahydro-1H-pyrazolo[3,4-c]pyridine-3-carboxamide] was tested, and the IC50 was 0.1 to 0.3 µM.
`CCNC(=O)c1nn(-c2cccc(Cl)c2)c2c1CCN(c1ccc3c(c1)C(=O)N(C)CC3)C2=O` [Example 1297, 1-(3-chlorophenyl)-N-ethyl-6-(2-methyl-1-oxo-1,2,3,4-tetrahydroisoquinolin-7-yl)-7-oxo-4,5,6,7-tetrahydro-1H-pyrazolo[3,4-c]pyridine-3-carboxamide] gave an IC50 of 0.3 to 1 µM.
In the case of `CN(C)C(=O)c1cnnc(N2CCc3c(C(=O)NCC4CC4)nn(-c4cccc(Cl)c4)c3C2=O)c1` [Example 1298, 1-(3-chlorophenyl)-N-(cyclopropylmethyl)-6-(5-(dimethylcarbamoyl)pyridazin-3-yl)-7-oxo-4,5,6,7-tetrahydro-1H-pyrazolo[3,4-c]pyridine-3-carboxamide], the IC50 is reported as 3 to 10 µM.
With `O=C(NCC1CC1)c1nn(-c2cccc(Cl)c2)c2c1CCN(c1ccc3c(c1)CN(CCO)CC3(F)F)C2=O` [Example 1300, 1-(3-chlorophenyl)-N-(cyclopropylmethyl)-6-(4,4-difluoro-2-(2-hydroxyethyl)-1,2,3,4-tetrahydroisoquinolin-7-yl)-7-oxo-4,5,6,7-tetrahydro-1H-pyrazolo[3,4-c]pyridine-3-carboxamide] the IC50 was 3 to 10 µM.
`CN1CCc2ncc(N3CCc4c(C(=O)NCC5CC5)nn(-c5cccc(Cl)c5)c4C3=O)cc2C1=O` [Example 1301, 1-(3-chlorophenyl)-N-(cyclopropylmethyl)-6-(6-methyl-5-oxo-5,6,7,8-tetrahydro-1,6-naphthyridin-3-yl)-7-oxo-4,5,6,7-tetrahydro-1H-pyrazolo[3,4-c]pyridine-3-carboxamide] showed an IC50 of 1 to 3 µM.
With `Cc1ccncc1CNC(=O)c1nn(-c2cccc(Cl)c2)c2c1CCN(c1cnc3c(c1)C(=O)N(C)CC3)C2=O` [Example 1302, 1-(3-chlorophenyl)-6-(6-methyl-5-oxo-5,6,7,8-tetrahydro-1,6-naphthyridin-3-yl)-N-((4-methylpyridin-3-yl)methyl)-7-oxo-4,5,6,7-tetrahydro-1H-pyrazolo[3,4-c]pyridine-3-carboxamide] the IC50 was 0.3 to 1 µM.
Molecule `Cc1cc(CNC(=O)c2nn(-c3cccc(Cl)c3)c3c2CCN(c2cnc4c(c2)C(=O)N(C)CC4)C3=O)nn1C` [Example 1303, 1-(3-chlorophenyl)-N-((1,5-dimethyl-1H-pyrazol-3-yl)methyl)-6-(6-methyl-5-oxo-5,6,7,8-tetrahydro-1,6-naphthyridin-3-yl)-7-oxo-4,5,6,7-tetrahydro-1H-pyrazolo[3,4-c]pyridine-3-carboxamide] has an IC50 of 0.3 to 1 µM.
